According to patent publication US6365314B1, “Toner for developing electrostatic image, image forming method and process cartridge” (Canon Kabushiki Kaisha, priority 1994, dated 2002):

Test: Solubility measurement of charge control agent in methanol
Assay type: physicochemical
Settings: stirred 1 hour at 50° C., cooled to room temperature, 0.1 μm-filter, absorbance vs 20 ppm standard
Protocol: The solubility of the charge control agent may be measured in the following manner.
<Solubility measurement of charge control agent>
2 g of a charge control agent is weighed and placed in a 300 ml Erlenmeyer flask to which 100 ml of methanol is added. The system is heated to 50° C. under stirring and the stirring is further continued for 1 hour (when all the charge control agent is dissolved, the charge control agent is further added successively at an increment of 2 g each under continued stirring). Then, the system is cooled to room temperature and the insoluble charge control agent is removed by a 0.1 μm-filter to measure the absorbance (A) of the solution at a maximum absorption wavelength by using a spectrophotometer.
wherein I denotes a transmitted light intensity through a solution, I0 denotes a transmitted light intensity through a solvent (=methanol), ε0 denotes an absorption coefficient, C denotes the concentration of the charge control agent, and d denotes the thickness of the solution for the absorbance measurement.

SMILES	SMeOH (solubility in methanol)
O=C(Nc1ccccc1)c1cc2ccccc2c2c1[O][Fe]1([O]c3c(Cl)cc(Cl)cc3N=N2)[O]c2c(Cl)cc(Cl)cc2N=Nc2c(c(C(=O)Nc3ccccc3)cc3ccccc23)[O]1 (stereo not shown) [Complex (2)]	SMeOH = 0.75 g/100 ml)
Cc1ccccc1NC(=O)c1cc2ccccc2c2c1[O][Fe]1([O]c3cc(Cl)c([N+](=O)[O-])cc3/N=N/2)[O]c2cc(Cl)c([N+](=O)[O-])cc2/N=N/c2c(c(C(=O)Nc3ccccc3C)cc3ccccc23)[O]1 [Complex (5)]	SMeOH = 0.65 g/100 ml)
Cc1ccccc1NC(=O)c1cc2ccccc2c2c1[O][Fe]1([O]c3ccccc3N=N2)[O]c2ccccc2N=Nc2c(c(C(=O)Nc3ccccc3C)cc3ccccc23)[O]1 (stereo not shown) [Complex (6)]	SMeOH = 0.76 g/100 ml)
O=C(Nc1cccc([N+](=O)[O-])c1)c1cc2ccccc2c2c1[O][Fe]1([O]c3ccc(Cl)cc3/N=N/2)[O]c2ccc(Cl)cc2/N=N/c2c(c(C(=O)Nc3cccc([N+](=O)[O-])c3)cc3ccccc23)[O]1 [Complex (3)]	SMeOH = 0.71 g/100 ml)
O=C(Nc1cccc([N+](=O)[O-])c1)c1cc2ccccc2c2c1[O][Fe]1([O]c3c(cc(Cl)cc3[N+](=O)[O-])/N=N/2)[O]c2c(cc(Cl)cc2[N+](=O)[O-])/N=N/c2c(c(C(=O)Nc3cccc([N+](=O)[O-])c3)cc3ccccc23)[O]1 [Complex (4)]	SMeOH = 0.65 g/100 ml)
O=C(Nc1ccccc1)c1cc2ccccc2c2c1[O][Fe]1([O]c3ccc(Cl)cc3N=N2)[O]c2ccc(Cl)cc2N=Nc2c(c(C(=O)Nc3ccccc3)cc3ccccc23)[O]1 (stereo not shown) [Complex (1)]	SMeOH = 0.87 g/100 ml)

Same assay, conditions: stirred 1 hour at 50° C., cooled to room temperature, 0.1 μm-filter, absorbance vs 20 ppm standard, listed as Azo-type iron complex (1)

SMILES	SMeOH (solubility in methanol)
O=C(Nc1ccccc1)c1cc2ccccc2c2c1[O][Fe]1([O]c3ccc(Cl)cc3N=N2)[O]c2ccc(Cl)cc2N=Nc2c(c(C(=O)Nc3ccccc3)cc3ccccc23)[O]1 (stereo not shown) [Complex (1)]	0.87 g/100 ml)
